Structures can show the parent of a compound that is named as a salt.
Target: T1, human M1 receptor (hCHRM1) (Homo sapiens, UniProt P11229)
T1 construct: expressed in transfected cells
T1 sequence (P11229 1-460): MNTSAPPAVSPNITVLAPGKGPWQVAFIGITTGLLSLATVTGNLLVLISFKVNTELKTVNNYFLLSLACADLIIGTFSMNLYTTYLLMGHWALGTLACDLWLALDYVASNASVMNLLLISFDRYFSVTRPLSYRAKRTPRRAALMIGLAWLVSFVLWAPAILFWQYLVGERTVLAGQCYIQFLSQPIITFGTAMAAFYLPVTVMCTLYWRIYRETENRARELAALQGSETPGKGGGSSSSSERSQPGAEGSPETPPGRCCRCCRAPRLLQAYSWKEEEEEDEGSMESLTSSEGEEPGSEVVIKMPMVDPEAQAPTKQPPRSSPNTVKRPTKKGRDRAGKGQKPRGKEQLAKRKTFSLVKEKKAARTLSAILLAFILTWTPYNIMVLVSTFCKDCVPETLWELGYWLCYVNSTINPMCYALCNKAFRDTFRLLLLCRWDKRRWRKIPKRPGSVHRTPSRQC
Assay: Measurement of M1 receptor positive allosteric modulator (M1PAM) activity, Ca2+ fluorescence by FLIPRtetra (Experimental Example 1)
Format: cell-based
Settings: for activity (%) at 10 μM: 10 μM test compound, 100% = acetylcholine 1 μM, 0% = DMSO; for EC50: inflection point of concentration-dependent curve, in presence of acetylcholine at EC20 (0.8-1.0 nM), CHO-K1 cells expressing hCHRM1, read-out: IP value
Summary of the method: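 CHO-K1 cells stably expressing hCHRM1, loaded with Fluo-4 AM (probenecid), received compound with acetylcholine at EC20 (final 0.8-1.0 nM); Ca2+ fluorescence read 1 min by FLIPRtetra. Activity scaled 0% (DMSO) to 100% (1 μM acetylcholine); IP from inflection point of concentration curve.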

activity (%) at 10 μM [%]	EC50 [µM]	Compound
93	0.044	Cn1cc(-c2ccc(Cc3ccc4c(c3)C(=O)N([C@H]3CCCC[C@@H]3O)CO4)cc2)cn1 (relative stereo) [Example 66, 3-(trans-2-hydroxycyclohexyl)-6-(4-(1-methyl-1H-pyrazol-4-yl)benzyl)-2,3-dihydro-4H-1,3-benzoxazin-4-one]
95	0.016	O=C1c2cc(CN3CCC(F)(F)CC3)c3ccccc3c2OCN1[C@H]1CCC[C@@H]1O [Example 21, 6-((4,4-difluoropiperidin-1-yl)methyl)-3-((1S,2S)-2-hydroxycyclopentyl)-2,3-dihydro-4H-naphtho[2,1-e][1,3]oxazin-4-one]
98	0.0016	Cc1ccc(Cc2cc3c(c4ccccc24)OCN([C@H]2CCC[C@@H]2O)C3=O)cn1 [Example 40, 3-((1S,2S)-2-hydroxycyclopentyl)-6-((6-methylpyridin-3-yl)methyl)-2,3-dihydro-4H-naphtho[2,1-e][1,3]oxazin-4-one]
98	0.0046	Cc1c(Cc2ccc(-c3ccn(C)n3)cc2)cc2c(c1F)OCN([C@H]1CCC[C@@H]1O)C2=O [Example 9, 8-fluoro-3-((1S,2S)-2-hydroxycyclopentyl)-7-methyl-6-(4-(1-methyl-1H-pyrazol-3-yl)benzyl)-2,3-dihydro-4H-1,3-benzoxazin-4-one]
109	0.0032	O=C1c2cc(Cc3ccc(Cl)nc3)c3ccccc3c2OCN1[C@H]1COCC[C@@H]1O [Example 4, 1,5-anhydro-2-(6-((6-chloropyridin-3-yl)methyl)-4-oxo-2H-naphtho[2,1-e][1,3]oxazin-3(4H)-yl)-2,4-dideoxy-L-threo-pentitol]
105	0.053	Cc1cc2c(cc1Cc1ccc(-c3cn(C)nn3)nc1)C(=O)N(CC1CCCO1)CO2 (stereo not shown) [Example 71, 7-methyl-6-((6-(1-methyl-1H-1,2,3-triazol-4-yl)pyridin-3-yl)methyl)-3-(tetrahydrofuran-2-ylmethyl)-2,3-dihydro-4H-1,3-benzoxazin-4-one]
99	0.035	Cc1cc(Cc2ccc(-n3cccn3)cc2)cc2c1OCN([C@H]1CCCC[C@@H]1O)C2=O (relative stereo) [Example 65, 3-(trans-2-hydroxycyclohexyl)-8-methyl-6-(4-(1H-pyrazol-1-yl)benzyl)-2,3-dihydro-4H-1,3-benzoxazin-4-one]
105	0.0096	Cc1c(Cc2ccc(Cl)nc2)cc2c(c1C)OCN([C@H]1CCC[C@@H]1O)C2=O [Example 8, 6-((6-chloropyridin-3-yl)methyl)-3-((1S,2S)-2-hydroxycyclopentyl)-7,8-dimethyl-2,3-dihydro-4H-1,3-benzoxazin-4-one]
104	0.11	Cc1cc2c(cc1CN1CCC(F)(F)CC1)C(=O)N([C@H]1CCCC[C@@H]1O)CO2 (relative stereo) [Example 85, 6-((4,4-difluoropiperidin-1-yl)methyl)-3-(trans-2-hydroxycyclohexyl)-7-methyl-2,3-dihydro-4H-1,3-benzoxazin-4-one]
120	0.0086	Cc1cc2c(cc1Cc1ccc(-n3cccn3)cc1)C(=O)N([C@H]1COCC[C@@H]1O)CO2 [Example 50, 1,5-anhydro-2,4-dideoxy-2-(7-methyl-4-oxo-6-(4-(1H-pyrazol-1-yl)benzyl)-2H-1,3-benzoxazin-3(4H)-yl)-L-threo-pentitol]
97	0.059	COc1ccc(Cc2cc3c(cc2C)OCN([C@H]2CCC[C@@H]2O)C3=O)cc1 [Example 73, 3-((1S,2S)-2-hydroxycyclopentyl)-6-(4-methoxybenzyl)-7-methyl-2,3-dihydro-4H-1,3-benzoxazin-4-one]
99	0.0039	Cc1c(Cc2ccc(C#N)cc2)cc2c(c1C)OCN([C@H]1CCC[C@@H]1O)C2=O [Example 44, 4-((3-((1S,2S)-2-hydroxycyclopentyl)-7,8-dimethyl-4-oxo-3,4-dihydro-2H-1,3-benzoxazin-6-yl)methyl)benzonitrile]
104	0.0018	Cn1cc(-c2ccc(Cc3cc4c(c5ccccc35)OCN([C@H]3CCCC[C@@H]3O)C4=O)cn2)cn1 (relative stereo) [Example 41, 3-(trans-2-hydroxycyclohexyl)-6-((6-(1-methyl-1H-pyrazol-4-yl)pyridin-3-yl)methyl)-2,3-dihydro-4H-naphtho[2,1-e][1,3]oxazin-4-one]
99	0.1	COc1ccc(Cc2cc3c(cc2C)OCN([C@H]2COCC[C@@H]2O)C3=O)cc1 (relative stereo) [Example 86, 1,5-anhydro-2,4-dideoxy-2-(6-(4-methoxybenzyl)-7-methyl-4-oxo-2H-1,3-benzoxazin-3(4H)-yl)-threo-pentitol]
93	0.051	O=C1c2cc(CN3CCC(F)(F)C3)c3ccccc3c2OCN1[C@H]1CCC[C@@H]1O [Example 69, 6-((3,3-difluoropyrrolidin-1-yl)methyl)-3-((1S,2S)-2-hydroxycyclopentyl)-2,3-dihydro-4H-naphtho[2,1-e][1,3]oxazin-4-one]
91		Cc1cc2c(cc1Cc1ccc(Cl)nc1)C(=O)N([C@H]1CCCC[C@@H]1O)CO2 (relative stereo) [Example 62, 6-((6-chloropyridin-3-yl)methyl)-3-(trans-2-hydroxycyclohexyl)-7-methyl-2,3-dihydro-4H-1,3-benzoxazin-4-one]
106	0.016	O=C1c2cc(CN3CCSCC3)c3ccccc3c2OCN1[C@H]1CCC[C@@H]1O [Example 57, 3-((1S,2S)-2-hydroxycyclopentyl)-6-(thiomorpholin-4-ylmethyl)-2,3-dihydro-4H-naphtho[2,1-e][1,3]oxazin-4-one]
103	0.0025	Cc1ccc(Cc2cc3c(c4ccccc24)OCN([C@H]2COCC[C@@H]2O)C3=O)cn1 (single isomer, unassigned) [Example 3, 1,5-anhydro-2,4-dideoxy-2-(6-((6-methylpyridin-3-yl)methyl)-4-oxo-2H-naphtho[2,1-e][1,3]oxazin-3(4H)-yl)-threo-pentitol monohydrochloride (optical isomer)]
91	0.0036	Cc1ccc(Cc2cc3c(c4ccccc24)OCN([C@H]2COCC[C@@H]2O)C3=O)cn1 [Example 133, 1,5-anhydro-2,4-dideoxy-2-(6-((6-methylpyridin-3-yl)methyl)-4-oxo-2H-naphtho[2,1-e][1,3]oxazin-3(4H)-yl)-L-threo-pentitol]
97	0.081	O=C1NCOc2c1cc(Cc1ccc(Cl)nc1)c1ccccc21 [Example 80, 6-((6-chloropyridin-3-yl)methyl)-2,3-dihydro-4H-naphtho[2,1-e][1,3]oxazin-4-one]
96	0.053	Cc1cc2c(cc1Cc1ccc(Cl)nc1)C(=O)N([C@H]1CCC[C@@H]1O)CO2 [Example 34, 6-((6-chloropyridin-3-yl)methyl)-3-((1S,2S)-2-hydroxycyclopentyl)-7-methyl-2,3-dihydro-4H-1,3-benzoxazin-4-one]
102	0.02	Cc1c(Cc2ccc(Cl)nc2)cc2c(c1F)OCN([C@H]1CCC[C@@H]1O)C2=O [Example 16, 6-((6-chloropyridin-3-yl)methyl)-8-fluoro-3-((1S,2S)-2-hydroxycyclopentyl)-7-methyl-2,3-dihydro-4H-1,3-benzoxazin-4-one]
107	0.037	COc1ccc(Cc2cc3c(c(F)c2C)OCN([C@H]2CCC[C@@H]2O)C3=O)cn1 [Example 18, 8-fluoro-3-((1S,2S)-2-hydroxycyclopentyl)-6-((6-methoxypyridin-3-yl)methyl)-7-methyl-2,3-dihydro-4H-1,3-benzoxazin-4-one]
101	0.011	Cc1cc2c(cc1Cc1ccc(-n3cccn3)cc1)C(=O)N([C@H]1CCCC[C@@H]1O)CO2 (relative stereo) [Example 52, 3-(trans-2-hydroxycyclohexyl)-7-methyl-6-(4-(1H-pyrazol-1-yl)benzyl)-2,3-dihydro-4H-1,3-benzoxazin-4-one]
99	0.034	Cc1ccc(Cc2cc3c(cc2C)OCN([C@H]2CCC[C@@H]2O)C3=O)cn1 [Example 64, 3-((1S,2S)-2-hydroxycyclopentyl)-7-methyl-6-((6-methylpyridin-3-yl)methyl)-2,3-dihydro-4H-1,3-benzoxazin-4-one]

From US10323027B2, “2,3-dihydro-4H-1,3-benzoxazin-4-one derivatives as modulators of cholinergic muscarinic M1 receptor” (Takeda Pharmaceutical Company Limited, priority 2015, dated 2019)
